Assay results reported in US20220184235A1, “NEAR-INFRARED FLUORESCENT PROBES FOR MOLECULAR IMAGING OF BONE REPAIR” (Taipeibio Co., Ltd., priority 2020, published 2022).
Bridges are numbered along the chain shown (N, C = ends). Where no end group is shown, it is not given here.

Experiments:
[1] = NIR fluorescence emission spectra of the probes; assay type: physicochemical; settings: excitation of 777 nm
Protocol: Triethylamine (65.3 μL, 0.467 mmol) and 3-mercaptopropionic acid (40.7 μL, 0.467 mmol) were added to a solution of IR-783 (250 mg, 0.33 mmol) in 6 mL of anhydrous dimethylformamide (“DMF”). The resulting green solution was stirred in the dark at room temperature. The conversion reaction of IR783 to CyTE777 was complete after 21 h, as monitored by high-performance liquid chromatography (“HPLC”). A green solid was isolated through precipitation with ether at 4° C. and was washed with 3 mL cold ether. The precipitate was dissolved in water and dried under vacuum.
The augmented fluorescence intensity indicated completed conjugation.
Pamidronate (“PAM”) was attached to the carboxylate surface of nanoAu to form nanoAu-Pam directly or using a zero-length crosslinking agent, i.e., 1-ethyl-3-[3-dimethyl-aminopropyl] carbodiimide hydrochloride (“EDC”). Briefly, equal volumes of nanoAu (40 mM), pamidronate (3 mM), and EDC (80 mM) were mixed at room temperature for 2 h. To concentrate the nanoAu-Pam, the reaction was loaded on a 30 kDa molecular sieve (Amicon) and centrifuged at 3000 rpm for 10 min. The solution was centrifuged twice and washed with phosphate-buffered saline (“PBS”) to remove any unbound reactants. […] The fluorescence intensity of excitation spectra was recorded using an Edinburgh FL 900 CDT Time-Resolved Fluorometer (Edinburgh Analytical Instruments, Livingston, UK).

[2] = system: osteoblastic-induced MSCs (α5β1); assay: Binding specificity of α5β1L-CyTE777 in osteoblastic-induced MSCs, confocal microscopy; assay type: cell-based; settings: osteoblastic-induced MSC
Protocol: (§1) To determine the binding specificity of α5β1L-CyTE777, undifferentiated MSCs or osteoblastic-induced MSCs were cultured in 24-well plates in DMEM/LG supplemented with 10% FBS. α5β1L-CyTE777 was applied to the cultures to detect binding to α5β1 . Cultures incubated with α5β1L-CyTE777 were washed with PBS twice and analyzed by confocal microscopy after staining nuclei with diamidinophenylindole (“DAPI”).

undifferentiated MSCs [3] = assay: Binding specificity of α5β1L-CyTE777 in undifferentiated MSCs, confocal microscopy; assay type: cell-based; settings: undifferentiated MSC
Protocol: as §1

[4] = statement on the purchased dye; cited from earlier work
[5] = system: osteoblastic-differentiated MSC culture; assay: Calcein staining for calcium deposition in osteogenically induced MSC culture; assay type: cell-based; settings: MSC culture after 21 days of osteogenic induction
Protocol: For osteogenic induction, MSCs were cultured in 24-well plates in DMEM/LG medium supplemented with 10% FBS, 100 units/mL penicillin, 100 μg/mL streptomycin, 50 μg/ml L-ascorbate-2-phosphate, 10^−7 M dexamethasone and 10 mM β-glycero-phosphate at 37° C., 5% CO2. Cells were also stained with calcein using a standard protocol to confirm calcium deposition in the culture. A 10x calcein/PBS staining solution was added to each well without medium change. The cells were incubated at 37° C., 5% CO2 overnight, washed twice with PBS, fixed with formaldehyde, and observed by fluorescence microscopy.

undifferentiated MSCs [6] = assay: Calcein staining of undifferentiated MSCs; assay type: cell-based
Protocol: Cells were also stained with calcein using a standard protocol to confirm calcium deposition in the culture. A 10x calcein/PBS staining solution was added to each well without medium change. The cells were incubated at 37° C., 5% CO2 overnight, washed twice with PBS, fixed with formaldehyde, and observed by fluorescence microscopy.

In the case of “α5β1L-CyTE777: CyTE777 conjugated to the N-terminal glycine NH2 of disulfide-cyclised peptide GGCRRETAWAC (SEQ ID NO: 1) (CyTE777-GGCRRETAWAC; disulfide 3-11 (inferred))”, the NIR emission peak [1] is reported as 820 nm, the “fluorescent signal of cells incubated with probe” value [2] is reported as “strong NIR fluorescence at 820 nm” and the “fluorescent signal of cells incubated with probe” value (undifferentiated MSCs [3]) is reported as “did not show any fluorescent signal”.
For CC1(C)C(=CC=C2CCCC(C=CC3=[N+](CCCCS(=O)(=O)[O-])c4ccccc4C3(C)C)=C2Cl)N(CCCCS(=O)(=O)[O-])c2ccccc21.[Na+] [IR783], the cell toxicity [4] is listed as “minimal cell toxicity”.
Work on CC1(C)C(=CC=C2CCCC(C=CC3=[N+](CCCCS(=O)(=O)[O-])c4ccccc4C3(C)C)=C2SCCC(=O)O)N(CCCCS(=O)(=O)[O-])c2ccccc21.[Na+] [CyTE777] yielded an NIR emission peak [1] of 820 nm.
With O=C(O)CN(CC(=O)O)Cc1cc2c(cc1O)Oc1cc(O)c(CN(CC(=O)O)CC(=O)O)cc1C21OC(=O)c2ccccc21 [calcein] the “calcein staining (calcium deposition)” value [5] was “positive staining” and the “calcein staining (calcium deposition)” value (undifferentiated MSCs [6]) was “No calcein staining”.
